Source: patent US6495594B2, “Biologically active analogs of discodermolide” (Harbor Branch Oceanographic Institution, Inc., priority 2000, dated 2002)
Entries after “also recorded” stand apart in the source; their conditions may differ.

Experiments:
[1] = see U.S. Pat. No. 6,127,406; cited from earlier work
[2] = test system: A549 human adenocarcinoma tumor cells; assay: Microtubule bundling patterns in tumor cells by immunofluorescence; type: cell-based; set-up: key to Microtubule bundling in A549 cells: −: no effect; +/−: minimal or questionable effect; +: weak effect; ++: strong effect; +++: very strong effect equivalent to discodermolide
Procedure: Discodermolide and discodermolide analogs were evaluated as to their effects on the morphology of the microtubule network of cells using mouse anti-alpha-tubulin monoclonal antibody.
On day one, 7×10^4 adherent A549 human adenocarcinoma tumor cells were cultured in TCM overnight at 37° C. in 5% CO2 on 22 mm^2 cover slips in 6-well microtiter plates. On day two, TCM was removed and replaced with 10-1000 nM discodermolide or analog in TCM or TCM without drug (control) and incubated overnight at 37° C. in 5% CO2. On day three, TCM was removed and cells attached to cover slips were fixed with a 3.7% formaldehyde solution in Dulbecco's PBS for 10 minutes at room temperature. Cells were permeabilized with a 2% Triton X-100 solution, 2 mL per well, for 5 minutes at room temperature and washed twice in Dulbecco's PBS prior to staining.
To each well containing cells attached to cover slips a 2 mL volume of mouse anti- alpha-tubulin monoclonal antibody (Cat# T-5168, Sigma Chemical Co., St. Louis, Mo.) diluted 1:1000 in Dulbecco's phosphate buffered saline (D-PBS) was added and the cells incubated at room temperature for 45 minutes. Cover slips were rinsed once with D-PBS. A 2 mL volume of goat-anti-mouse-IgG-FITC conjugated antibody (Cat# T-5262, Sigma Chemical Co., St. Louis, Mo.) diluted 1:1000 in D-PBS was added and the cells incubated at room temperature for 45 minutes. Cover slips were rinsed once in D-PBS and DNA was stained with 0.02 mg/mL propidium iodide together with 0.1 mg/mL of ribonuclease A (RNAse) A in D-PBS at 37° C. for 30 minutes. Cover slips were rinsed three times with sterile distilled water, air-dried and mounted on slides with SlowFade™ antifade solution (Molecular Probes, Eugene, Oreg.) and observed under the microscope using epifluorescence illumination for the presence of abnormal aster and microtubule bundle formations.

A549 human lung cells = assay: Cell cycle progression by flow cytometry; type: cell-based
Procedure: Cell cycle studies were initiated in order to pinpoint a specific phase within the cell cycle in which discodermolide analogs were exerting their antiproliferative effect. A549 human lung cells were used as cell cycle targets to compare the effects of discodermolide and discodermolide analogs on perturbation of the cell cycle. Cell cycle analyses were performed as follows: A549 cells were incubated at 37° C. in 5% CO2 in air in the presence or absence of varying concentrations of discodermolide or discodermolide analogs for 24 hr. Cells were harvested, fixed in ethanol, washed, and stained with 0.02 mg/mL of propidium iodide (P.I.) together with 0.1 mg/mL of RNAse A. Stained preparations were analyzed on a Coulter EPICS ELITE flow cytometer with 488 nm excitation. Fluorescence measurements and resulting DNA histograms were collected from at least 10,000 P.I. stained cells at an emission wavelength of 690 nm. Raw histogram data was further analyzed using a cell cycle analysis program (Multicycle, Phoenix Flow Systems).

[3] = test system: P388 murine leukemia cell lines; assay: In vitro proliferation of P388 cells (MTT); type: cell-based; details: 48-h exposure
Procedure: Discodermolide and discodermolide analogs were analyzed as to their effects on proliferation of A549 human adenocarcinoma and P388 murine leukemia cell lines. P388 cells were obtained from Dr. R. Camalier, National Cancer Institute, Bethesda, MD, and A549 cells were obtained from American Type Culture Collection, Rockville, MD. All cell lines were maintained in tissue culture medium (TCM; Roswell Park Memorial Institute RPMI 1640 supplemented with 100 U/mL penicillin, […], 60 […], 18 mM HEPES, 0.05 mg/mL gentamicin (Life Technologies, Gaithersburg, MD) and 10% fetal bovine serum) and cultured in plastic tissue culture flasks at 37° C. in humidified air containing 5% CO2. Stock cultures of P388 cells were subcultured 1:20 in fresh TCM every 2 to 3 days. Stock cultures of A549 cells were subcultured 1:10 every 3 to 4 days. To assess the antiproliferative effects of agents against the cells, 200 μL cultures (96-well tissue culture plates, Nunc, Denmark) were established at 1 ×10^5 cells/mL in TCM or TCM containing the test agent at 0.03-5.0 μg/mL. After 48-h exposures, P388 cells were enumerated using 3-[4,5-dimethylthiazol-2-yl]-2,5-diphenyltetrazolium bromide (MTT) as described in the literature (M. C. Alley, et al., Cancer Res. 48:589, 1988). A549 cells were enumerated in the same manner after 72 hours exposure. The results were expressed as percent inhibition compared to the negative (no drug) control. Positive drug controls of varying dilutions of 5-fluorouracil and adriamycin (Sigma Chemical Co., St Louis, MO) were included to monitor drug sensitivity of the cell line.
To quantitate the effects on cell proliferation and resulting IC50 values, 75 μL of warm growth media containing 5 mg/mL MTT is added to each well, cultures returned to the incubator, and left undisturbed for 3 hours. To spectrophotometrically quantitate formation of reduced formazan, plates are centrifuged (500×g, 10 minutes), culture fluids removed by aspiration, and 200 μL of acidified isopropanol (2 mL concentrated HCl /liter isopropanol) added per well. The absorbance of the resulting solutions is measured in a plate reader (TECAN Spectra SLT; TECAN U.S., Research Triangle Park, N.C.) at 570 nm and a 650 nm reference filter. The absorbance of test wells is divided by the absorbance of drug-free wells, and the concentration of agent that results in 50% of the absorbance of untreated cultures (IC50) is determined by linear regression of logit-transformed data (D. J. Finney, Statistical Method in Biological Assay, third ed., pp. 316-348, Charles Griffin Co., London, 1978). A linear relationship between tumor cell number and formazan production has been routinely observed over the range of cell densities observed in these experiments. The two standard drug controls (indicated above) are included in each assay as a check to monitor the drug sensitivity of each of the cell lines and IC50 values are determined for each drug-cell combination.

## C=CC=CC(C)C(OC(N)=O)C(C)C(OC(C)=O)C(C)CC(C)=CC(C)C(O)C(C)C=CC(CC1OC(=O)C(C)C(OC(C)=O)C1C)OC(C)=O (stereo not drawn) [discodermolide-3,7,17-triacetate]
[1]
  Cytotoxicity compared to the parent molecule: dramatic reduction in the activity

## C=CC=CC(C)C(OC(N)=O)C(C)C(O)C(C)CC(C)=CC(C)C(OC(C)=O)C(C)C=CC(O)CC1OC(=O)C(C)C(OC(C)=O)C1C (stereo not drawn) [discodermolide-3,11-diacetate]
[1]
  Cytotoxicity compared to the parent molecule: reduced cytotoxicity

## C=CC=CC(C)C(OC(N)=O)C(C)C(O)C(C)CC(C)=CC(C)C(O)C(C)C=CC(CC1OC(=O)C(C)=CC1C)OC(=O)CCC(=O)O (stereo not drawn) [3-deoxy-2Δ-discodermolide-7-succinate]
[2]; 10 nM
  Microtubule bundling observation: indistinguishable from that of the untreated (control) cells
[2]; 100 nM
  Microtubule bundling observation: indistinguishable from that of the untreated (control) cells
[2]; 1000 nM
  Microtubule bundling observation: no bundling
[2]; subjective rating versus discodermolide, Table 12
  Microtubule bundling in A549 cells: −
A549 human lung cells; 10 nM
  Cell cycle effects: indistinguishable from the untreated (control) cells
A549 human lung cells; 100 nM, 24 hr, A549
  Cell cycle effects (100 nM): indistinguishable from the untreated (control) cells
A549 human lung cells; 1000 nM
  Cell cycle effects: indistinguishable from the untreated (control) cells
A549 human lung cells; 3000 nM (highest concentration tested)
  Cell cycle effects: no cell cycle effects were noted; also recorded: slight induction of apoptosis and a general necrosis
[3]
  IC50 P388 cells: >5000 ng/mL
[3]; value in parentheses
  IC50: > 7.41 µM

## C=CC=CC(C)C(OC(N)=O)C(C)C(O)C(C)CC(C)=CC(C)C(OC(C)=O)C(C)C=CC(CC1OC(=O)C(C)C(OC(C)=O)C1C)OC(C)=O (stereo not drawn) [discodermolide-3,7,11-triacetate]
[1]
  Cytotoxicity compared to the parent molecule: reduced cytotoxicity

## C=CC=CC(C)C(OC(N)=O)C(C)C(O)C(C)CC(C)=CC(C)C(O)C(C)C=CC(CC1OC(=O)C(C)C(O)C1C)OC(C)=O (stereo not drawn) [discodermolide-7-acetate]
[1]
  Cytotoxicity compared to the parent molecule: greater cytotoxicity

## C=CC=CC(C)C(OC(N)=O)C(C)C(OC(C)=O)C(C)CC(C)=CC(C)C(OC(C)=O)C(C)C=CC(CC1OC(=O)C(C)C(OC(C)=O)C1C)OC(C)=O (stereo not drawn) [discodermolide-3,7,11,17-tetraacetate]
[1]
  Cytotoxicity compared to the parent molecule: dramatic reduction in the activity

## C=CC=CC(C)C(OC(N)=O)C(C)C(OC(C)=O)C(C)CC(C)=CC(C)C(O)C(C)C=CC(O)CC1OC(=O)C(C)C(OC(C)=O)C1C (stereo not drawn) [discodermolide-3,17-diacetate]
[1]
  Cytotoxicity compared to the parent molecule: dramatic reduction in the activity

## C=CC=CC(C)C(OC(N)=O)C(C)C(O)C(C)CC(C)=CC(C)C(O)C(C)C=CC(CC1OC(=O)C(C)C(OC(C)=O)C1C)OC(C)=O (stereo not drawn) [discodermolide-3,7-diacetate]
[1]
  Cytotoxicity compared to the parent molecule: greater cytotoxicity

## C=CC=CC(C)C(OC(N)=O)C(C)C(O)C(C)CC(C)=CC(C)C(O)C(C)C=CC(O)CC1OC(=O)C(C)C(OC(C)=O)C1C (stereo not drawn) [discodermolide-3-acetate]
[1]
  Cytotoxicity compared to the parent molecule: greater cytotoxicity
